Reference: patent US10240133B2, “ERK-derived peptides and uses thereof” (Yeda Research and Development Co. Ltd., priority 2013, dated 2019)

Key:
AKT = test: Western blotting of AKT phosphorylation; assay type: cell-based
Protocol: (A) EPE peptide prevents ERK1/2-importin7 interaction. HeLa cells were serum starved (0.1%, 16 hours), pretreated with EPE peptide, scrambled peptide (10 μM, 2 hours) or DMSO, and then stimulated with TPA (250 nM, 15 min). ERK1 were precipitated with αgERK1 Ab; importin7 co-immunoprecipitated with ERK1 was detected by WB with αimportin7 Ab. […] T47D, HeLa, MDA-MB-231 and A2352 cells were serum starved (0.1%, 16 hours), pretreated with EPE peptide, scrambled peptide (10 μM, 2 hours) or DMSO control, and then stimulated with TPA (250 nM, indicated times). Cell extracts were subjected to Western blot analysis with the indicated Abs. (C) EPE peptide inhibits phosphorylation of c-Myc and Elk1 in B-Raf melanomas. A2158 and A2352 cells were treated with scrambled and EPE peptide for two hours and then stimulated with the indicated concentration of TPA for 30 min. […] (D) Quantification of some of the results in B and C. […]
(i) Preparation of cellular extracts for Western Blotting: Cells were rinsed twice with ice-cold PBS and scraped into Radio-immunoprecipitation assay buffer (RIPA; 137 mM NaCl, 20 mM Tris (pH 7.4), 10% glycerol, 1% Triton X-100, 0.5% deoxycholate, 0.1% SDS, 2 mM EDTA, 1 mM PMSF, and 20 μM leupeptin). The extracts were centrifuged (20,000×g, 15 min, 4° C.), and the supernatants were further analyzed by Western blotting. […]

HeLa and T47D cells = test: Proliferation assay (Methylene Blue), optimal administration conditions; assay type: cell-based; details: administered every 24 h in fresh medium
Protocol: FIGS. 9A-9B illustrate the dose response of the EPE peptides on melanoma cells proliferation. LOXIMVI (FIG. 9A) and A2352 (FIG. 9B) melanoma cells were treated with the indicated doses of the EPE or Scr peptides. Presented as percent of viable cells at 72 h/initial cell number.
(§1) All cells, except of MCF-10A, were seeded into 12-well cell plates in 1% FBS medium. MCF-10A cells were seeded in their complete medium diluted 5 fold. DMSO, Scr peptide, EPE peptide, or U0126 (final concentration of 10 μM each) were added to the appropriated wells four hours later. Every day medium was changed to fresh one containing the same agents. The number of viable cells was measured by Methylene Blue assay at 72 h after cell seeding. Shortly, cells were fixed with 4% Formaldehyde for 2 h at 23° C., washed once with 0.1M Borate Buffer pH 8.5 and stained with of 1% Methylene Blue in 0.1M Borate Buffer for 10 min. Color was extracted by adding 0.1 M HCl for 3 h at 23° C., and examined at 595 nm. For time course experiments, viable cells were measured at 0, 24, 48, 72 and 96 h after cell seeding. For dose response experiments we treaded the cells with 0.1, 1, 3, 10, or 30 μM of peptides for 72 h, as described above.

[1] = system: non-transformed melanocytes (NHEM-Ad); test: Cell viability, EPE peptide compared with PLX4032; assay type: cell-based; details: EPE 10 μM, PLX4032 1 μM, 1% FCS
Protocol: FIGS. 3A-3B illustrate that EPE peptide prevents proliferation of cancer but not normal cells. (A) Effect of the EPE peptide on the proliferation of various cell lines. Sixteen cancer and four “normal” immortalized cell lines were treated with either EPE or scrambled peptides as described above. Viable cells were assayed by Methylene Blue at 48 or 72 hours after cell seeding. The data from at least three independent experiments is presented as percent of the amount of viable cells/initial cell number, where initial cell number was considered as 100. (B) Comparison of the effects of the EPE-peptide and Raf inhibitor PLX4032 on cell viability. NHEM-Ad, LOXIMVI, A2352, Hela MDA-MB-231, and DU-145 cells were treated with EPE peptide, scrambled peptide, (10 μM), PLX4032 (1 μM), DMSO control, or no treatment at 1% FCS. The number of cells was detected as above. The graphs present the kinetic of cell growth at the indicated times. All experiments were repeated 3 times in triplicates.
as §1

[2] = mouse, in vivo
Protocol: Female SCID mice (Harlan), 5-6 weeks of age, were inoculated s.c. into the flank region with 10^7 A2352 cells in 150 μl mixture of PBS with matrigel (2:1). Tumors were allowed to develop to the size of 5-6.5 mm in diameter (50˜110 mm^3 volume) and then the animals were randomly allocated to different treatment groups. The peptides (100 mM stock in DMSO), were diluted to the necessary concentration in PBS and boiled for 5 minutes. Then, DMSO, Scr or EPE peptides were administered by i.v. injection into the tail vein (150 μl/mouse, 3 times a week). Tumor dimensions were measured with a digital sliding caliper. Tumor volume was calculated using the formula: V=D1×D2×D3×π/6, where D1, D2, D3—represent the three mutually orthogonal growth diameters. To assess any signs of systemic toxicity, body weight was monitored, and recorded at the end of the experiment.
Tumor xenografts, lungs, livers, kidneys and hearts of animals from different treatment groups were removed and subjected for histological analysis by staining of 5 μm paraffin embedded tissue slides with H&E, and examination by light microscope. […] Briefly, paraffin embedded blocks of tumors after different treatments were cut at 4 μm thickness and stained with ERK Abs, followed by second antibodies conjugated to peroxidase and DAB staining. Representative fields of each specimen were photographed at ×20 and ×40 magnifications.

GQLNHILGILGEPEQED (Synthetic peptide (EPE)) [EPE peptide]
activation of AKT in resistant melanoma cells (AKT; data not shown): No significant effects
basal or stimulated phosphorylation of AKT (AKT; shortly after stimulation or longer time periods after treatment): no effect on the basal or stimulated phosphorylation of AKT
optimal administration conditions (maximal effect compared to Scr peptide) (HeLa and T47D cells): 10 µM
viability [1]: does not have any significant effect
size or structure of the kidneys, livers and hearts [2]: did not affect
structure of the lungs [2]: not affected
